Values joined by “and” are separate entries in the source; they are usually repeats but may differ in a detail not shown here. Equal entries are not always repeated.
What was measured:
[1] = test system: Pioneer inbred ED85E and GR013D seedlings / leaf segments; experiment: Sugar (maltose) seedling pre-treatment, leaf transformation (Table 27); type: in vivo, maize
[2] = test system: Pioneer inbred ED85E seedlings / leaf segments; experiment: Gibberellic acid inhibitor seedling pre-treatment, leaf transformation (Table 24); type: in vivo, maize
[3] = test system: teff (Eragrostis tef) seedlings; experiment: Ancymidol pre-treatment during seed germination and seedling growth, teff; type: in vivo
[4] = test system: pearl millet (Pennisetum glaucum) seedlings; experiment: Ancymidol pre-treatment during seed germination and seedling growth, pearl millet; type: in vivo
[5] = test system: maize inbred seedlings with pre-integrated target site 45 / leaf segments; experiment: Seedling pre-treatment with ancymidol, Agrobacterium-mediated site-specific integration (Table 22); type: in vivo; settings: 90AE medium (900 + 2 mg/l ancymidol); 30 seedlings; PHP90842:PHP93925 9:1; no untreated comparison
[6] = test system: Japonica rice (Oryza sativa var Kitaake) seedlings; experiment: Ancymidol pre-treatment during seed germination and seedling growth, rice; type: in vivo
[7] = test system: Pioneer inbred ED85E seedlings / leaf segments; experiment: Cytokinin seedling pre-treatment, leaf transformation (Table 25); type: in vivo, maize; settings: for # T0 plants / # culture response (2 wk) / # culture response (4 wk) / T-DNA score (0-5) / TXN %: 21 seedlings, PHP97334
[8] = test system: Pioneer inbred GR0112 seedlings / leaf segments; experiment: Fipexide seedling pre-treatment, leaf transformation (Table 26); type: in vivo, maize; settings: for # culture response (2 wk) / # culture response (4 wk) / T-DNA score (0-5): 42 seedlings, PHP96277; for increase of total somatic embryo (SE) number relative to the control treatment: within the first four weeks of culture, per 42 starting seedlings
[9] = test system: Pioneer inbred GR0112 seedlings / leaf segments; experiment: Norflurazon (abscisic acid biosynthesis inhibitor) seedling pre-treatment, leaf transformation (Table 28); type: in vivo, maize; settings: for # culture response (2 wk): 2 weeks after infection
[10] = 20 mg/l maltose in place of sucrose, 90AE medium, second replicate (inbred GR013D), 30 seedlings, PHP104215
[11] = 2 mg/l in 900 germination medium, 24 seedlings, PHP101093
[12] = 4 mg/l in 900 germination medium, 24 seedlings, PHP101093
[13] = 6 mg/l in 900 germination medium, 24 seedlings, PHP101093
[14] = 900 medium plus 2 mg/l ancymidol
[15] = 1 mg/l in 90AE medium (+ 2 mg/l ancymidol)
[16] = 5 mg/l in 90AE medium (+ 2 mg/l ancymidol)
[17] = 250 mg/l in 90AO medium (900 + 1 mg/l ancymidol), 30 seedlings, PHP97334
[18] = 500 mg/l in 90AO medium (900 + 1 mg/l ancymidol), 30 seedlings, PHP97334
[19] = 4.75 mg/l in 90AE medium (+ 2 mg/l ancymidol)
[20] = 9.5 mg/l in 90AE medium (+ 2 mg/l ancymidol)
[21] = 19 mg/l in 90AE medium (+ 2 mg/l ancymidol)
[22] = 0.1 mg/l in 90AE medium (+ 2 mg/l ancymidol)
[23] = 0.5 mg/l in 90AE medium (+ 2 mg/l ancymidol)
[24] = 3 mg/l in 90AE medium (+ 2 mg/l ancymidol)

With `OC[C@H]1O[C@H](O[C@H]2[C@H](O)[C@@H](O)C(O)O[C@@H]2CO)[C@H](O)[C@@H](O)[C@@H]1O` (mixture of isomers) [Maltose, maltose] the “improvement of T0 Txn % relative to seedlings grown on 20 mg/l sucrose” value ([1]; 20 mg/l maltose as the carbon source, inbred GR013D) was 1.3 fold, the “# T0 plants” value [1, 10] was 25 and the “# culture response (2 wk)” value [1, 10] was 650. The “# culture response (4 wk)” value [1, 10] was 562, the “T-DNA score (0-5)” value [1, 10] was 4 and the TXN % [1, 10] was 83%.

In the case of `CC(C)(C)[C@@H](O)[C@@H](Cc1ccc(Cl)cc1)n1cncn1` (racemic) [PBZ, paclobutrazol], the “# T0 plants” value [2, 11] is reported as 60, the “# culture response (2 wk)” value [2, 11] is reported as 271 and the “# culture response (4 wk)” value [2, 11] is reported as 224. For the same molecule, the “T-DNA score (0-5)” value [2, 11] was 3.5, the TXN % [2, 11] was 250% and the “# T0 plants” value [2, 12] was 40. For the same molecule, the “# culture response (2 wk)” value [2, 12] was 212, the “# culture response (4 wk)” value [2, 12] was 156 and the “T-DNA score (0-5)” value [2, 12] was 3.5. For the same molecule, the TXN % [2, 12] was 167%, the “# T0 plants” value [2, 13] was 29 and the “# culture response (2 wk)” value [2, 13] was 151. The “# culture response (4 wk)” value [2, 13] was 99, the “T-DNA score (0-5)” value [2, 13] was 3.5 and the TXN % [2, 13] was 121%. For the same molecule, the “trend in the T0 transformation data” value ([2]; concentrations tested in Table 24 (paclobutrazol 2-6 mg/l, daminozide 50-150 mg/l)) was “no clear trend” and the “T0 transformation frequencies relative to the control treatment” value ([2]; higher concentration ranges 10, 20, 50 mg/l, stated in present tense, no data) was “increase”.

For `COc1ccc(C(O)(c2cncnc2)C2CC2)cc1` (stereo not drawn) [Ancymidol, ancymidol], the “seedling height after 14 days” value [3, 14] was 1-2 cm, the “number of transgenic T0 plantlets compared to the other two treatments (0 and 2 mg/l)” value ([3]; 900 plus 1 mg/l ancymidol) was “highest” and the “seedling height after 14 days” value [4, 14] was 1-2 cm. The “number of transgenic T0 plantlets compared to the other two treatments (0 and 2 mg/l)” value ([4]; 900 plus 1 mg/l ancymidol) was “highest”, the “Number of: Escapes” value [5] was 3 and the “Number of: Events regenerated” value [5] was 7. The “Number of: Leaf segments/pieces responded” value [5] was 127, the “Number of: Putative events” value [5] was 44 and the “Number of: RMCE events” value [5] was 1. For the same molecule, the “Number of: SSI events” value [5] was 3, the “seedling height after 14 days” value [6, 14] was 1-2 cm and the “number of transgenic T0 plantlets compared to the other two treatments (0 and 2 mg/l)” value ([6]; 900 plus 1 mg/l ancymidol) was “highest”.

In the case of `c1ccc(CNc2ncnc3nc[nH]c23)cc1` [BAP, 6-benylamino purine], the “increase of T0 Txn % relative to the control seedling germination medium with no cytokinin” value ([7]; 1 mg/l) is reported as 1.4 fold, the “# T0 plants” value [7, 15] is reported as 97 and the “# culture response (2 wk)” value [7, 15] is reported as 135. For the same molecule, the “# culture response (4 wk)” value [7, 15] was 151, the “T-DNA score (0-5)” value [7, 15] was 4 and the TXN % [7, 15] was 462%. For the same molecule, the “increase of T0 Txn % relative to the control seedling germination medium with no cytokinin” value ([7]; 5 mg/l) was 1.8 fold, the “# T0 plants” value [7, 16] was 128 and the “# culture response (2 wk)” value [7, 16] was 144. For the same molecule, the “# culture response (4 wk)” value [7, 16] was 172, the “T-DNA score (0-5)” value [7, 16] was 4 and the TXN % [7, 16] was 610%.

In the case of `C[N+](C)(C)CCCl` [Chlormequat chloride, chlormequat chloride], the “# T0 plants” value [2, 17] is reported as 145, the “# culture response (2 wk)” value [2, 17] is reported as 265 and the “# culture response (4 wk)” value [2, 17] is reported as 318. The “T-DNA score (0-5)” value [2, 17] was 4.5, the TXN % [2, 17] was 483% and the “improvement of T0 transformation frequency (Txn %) relative to the control” value ([2]; 250 mg/l pretreatment of ED85E seedlings) was 1.4 fold. The “# T0 plants” value [2, 18] was 108, the “# culture response (2 wk)” value [2, 18] was 302 and the “# culture response (4 wk)” value [2, 18] was 339. For the same molecule, the “T-DNA score (0-5)” value [2, 18] was 4.5 and the TXN % [2, 18] was 360%.

With `CN(C)NC(=O)CCC(=O)O` [Daminozide, daminozide] the “# T0 plants” value ([2]; in vivo) was 71 and 41 and 53, the “# culture response (2 wk)” value ([2]; in vivo) was 87 and 103 and 70 and the “# culture response (4 wk)” value ([2]; in vivo) was 99 and 103 and 95. The “T0 transformation frequencies relative to the control treatment” value ([2]; in vivo) was “increase”, the “T-DNA score (0-5)” value ([2]; in vivo) was 4 and the TXN % ([2]; in vivo) was 355% and 205% and 265%. The “trend in the T0 transformation data” value ([2]; in vivo) was “no clear trend”.

For `O=C(COc1ccc(Cl)cc1)N1CCN(Cc2ccc3c(c2)OCO3)CC1` [Fipexide, fipexide], the “# culture response (2 wk)” value [8, 19] was 768, the “# culture response (4 wk)” value [8, 19] was 829 and the “T-DNA score (0-5)” value [8, 19] was 4. The “increase of total somatic embryo (SE) number relative to the control treatment” value ([8]; 4.75 mg/l) was 1.4 fold, the “# culture response (2 wk)” value [8, 20] was 681 and the “# culture response (4 wk)” value [8, 20] was 780. The “T-DNA score (0-5)” value [8, 20] was 3.5, the “increase of total somatic embryo (SE) number relative to the control treatment” value ([8]; 9.5 mg/l) was 1.3 fold and the “# culture response (2 wk)” value [8, 21] was 636. For the same molecule, the “# culture response (4 wk)” value [8, 21] was 733, the “T-DNA score (0-5)” value [8, 21] was 3.5 and the “increase of total somatic embryo (SE) number relative to the control treatment” value ([8]; 19 mg/l) was 1.2 fold.

With `O=C(Nc1ccccc1)Nc1cnns1` [TDZ, thidiazuron] the “# T0 plants” value [7, 22] was 99, the “# culture response (2 wk)” value [7, 22] was 169 and the “# culture response (4 wk)” value [7, 22] was 121. The “T-DNA score (0-5)” value [7, 22] was 4, the TXN % [7, 22] was 471% and the “# T0 plants” value [7, 23] was 97. For the same molecule, the “# culture response (2 wk)” value [7, 23] was 182, the “# culture response (4 wk)” value [7, 23] was 122 and the “T-DNA score (0-5)” value [7, 23] was 4. For the same molecule, the TXN % [7, 23] was 462%, the “change over the control treatment” value ([7]; 0.1 and 0.5 mg/l) was “no increase” and the “somatic embryo response and transformation frequency (Txn %)” value ([7]; higher concentration ranges, such as 1, 2, 5, or 10 mg/l, stated in present tense, no data) was “increase”.

`CNc1cnn(-c2cccc(C(F)(F)F)c2)c(=O)c1Cl` [norflurazon] was tested, and the “improvement of T0 Txn % relative to the control treatment” value ([9]; 0.1 mg/l norflurazon, inbred GR0112, within the first two weeks of culture after Agrobacterium infection) was 1.1 fold, the “T-DNA score (0-5)” value ([9]; norflurazon 0.1 mg/l in 90AE germination medium, inbred GR0112) was 4 and the “# culture response (2 wk)” value ([9]; norflurazon 0.1 mg/l, 22 seedlings) was 350. For the same molecule, the “T-DNA score (0-5)” value ([9]; norflurazon 1 mg/l in 90AE germination medium, inbred GR0112) was 1.5, the “# culture response (2 wk)” value ([9]; norflurazon 1 mg/l, 7 seedlings) was 19 and the “T-DNA score (0-5)” value ([9]; norflurazon 3 mg/l in 90AE germination medium, inbred GR0112) was 2. The “# culture response (2 wk)” value ([9]; norflurazon 3 mg/l, 7 seedlings) was 45.

In the case of trans-zeatin, the “increase of T0 Txn % relative to the control seedling germination medium with no cytokinin” value ([7]; 1 mg/l) is reported as 1.2 fold, the “# T0 plants” value [7, 15] is reported as 102 and the “# culture response (2 wk)” value [7, 15] is reported as 196. For the same molecule, the “# culture response (4 wk)” value [7, 15] was 177, the “T-DNA score (0-5)” value [7, 15] was 4 and the TXN % [7, 15] was 486%. For the same molecule, the “increase of T0 Txn % relative to the control seedling germination medium with no cytokinin” value ([7]; 3 mg/l) was 1.5 fold, the “# T0 plants” value [7, 24] was 130 and the “# culture response (2 wk)” value [7, 24] was 192. The “# culture response (4 wk)” value [7, 24] was 222, the “T-DNA score (0-5)” value [7, 24] was 4 and the TXN % [7, 24] was 619%.
